Results as given in US11999727B2 (Tango Therapeutics, Inc., priority 2020, dated 2024).
Counter-ions that a name gives are not always drawn. Like-named read-outs stand apart in the source and are kept apart here.

Legend:
[1] = target: T1, PRMT5 (Homo sapiens, UniProt O14744); assay: PRMT5 biochemical IC50 assay with SAM as cofactor; conditions: PRMT5, SAM as cofactor; read-out: SAM IC50
T1 construct: purchased Viva (custom protein)

[2] = target: T1, PRMT5; assay: PRMT5 biochemical IC50 assay with MTA as cofactor; conditions: PRMT5, MTA as cofactor; read-out: MTA IC50
[3] = system: HAP1 MTAP-intact cell line; assay: SDMA in-cell western assay, HAP1 MTAP-intact; type: cell-based; conditions: Homo sapiens
How it was run: (§1)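 MTAP-null vs endogenous-MTAP HAP1 isogenic cells; in-cell western SDMA readout; IC50 per line.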

[4] = system: HAP1 MTAP-deleted cell line; assay: SDMA in-cell western assay, HAP1 MTAP-deleted; type: cell-based; conditions: for IC50: Homo sapiens; for MTAP intact/deleted ratio: SDMA in-cell western
How it was run: as §1

[5] = system: HAP1 MTAP-deleted cell line; assay: Viability assay, MTAP-deleted cell line; type: cell-based; conditions: Homo sapiens
Excerpt: Table 1 additionally indicates IC50 values in a viability assay for the MTAP-deleted cell line (column 10), indicating the effect of treatment with compound on cell survival.

[6] = HAP1, SDMA in-cell western, HAP1 MTAP-intact, read-out: MTAP HAP1 intact IC50
[7] = HAP1, SDMA in-cell western, HAP1 MTAP-deleted, read-out: HAP 1 MTAP deleted IC50
[8] = IC50 ratio HAP1 MTAP-intact / HAP1 MTAP-deleted
[9] = HAP1, viability, HAP1 MTAP-deleted cell line, read-out: HAP1 MTAP deleted viability
[10] = HAP1, read-out: MTAP HAP1 intact IC50
[11] = HAP1, read-out: HAP1 MTAP deleted IC50
[12] = HAP1, read-out: HAP1 MTAP deleted viability

T1 sequence (O14744 whole entry): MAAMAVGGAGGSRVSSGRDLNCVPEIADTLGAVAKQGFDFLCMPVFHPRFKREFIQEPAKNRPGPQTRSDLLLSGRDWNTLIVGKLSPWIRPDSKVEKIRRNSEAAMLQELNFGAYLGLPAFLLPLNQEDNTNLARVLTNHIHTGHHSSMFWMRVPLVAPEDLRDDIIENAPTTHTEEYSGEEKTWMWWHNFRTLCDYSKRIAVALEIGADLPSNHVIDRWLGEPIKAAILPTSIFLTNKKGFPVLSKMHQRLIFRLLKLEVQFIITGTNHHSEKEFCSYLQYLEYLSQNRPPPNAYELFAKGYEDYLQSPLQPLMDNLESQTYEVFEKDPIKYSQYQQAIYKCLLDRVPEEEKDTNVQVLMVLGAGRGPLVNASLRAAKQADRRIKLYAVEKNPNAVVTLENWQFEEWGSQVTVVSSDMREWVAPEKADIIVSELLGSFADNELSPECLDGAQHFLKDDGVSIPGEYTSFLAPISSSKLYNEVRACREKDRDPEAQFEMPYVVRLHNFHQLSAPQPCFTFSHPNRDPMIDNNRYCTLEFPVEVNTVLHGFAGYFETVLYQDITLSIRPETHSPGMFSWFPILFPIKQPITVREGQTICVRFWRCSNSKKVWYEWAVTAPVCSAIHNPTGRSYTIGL
T1 sequence (Q9BQA1 whole entry partner): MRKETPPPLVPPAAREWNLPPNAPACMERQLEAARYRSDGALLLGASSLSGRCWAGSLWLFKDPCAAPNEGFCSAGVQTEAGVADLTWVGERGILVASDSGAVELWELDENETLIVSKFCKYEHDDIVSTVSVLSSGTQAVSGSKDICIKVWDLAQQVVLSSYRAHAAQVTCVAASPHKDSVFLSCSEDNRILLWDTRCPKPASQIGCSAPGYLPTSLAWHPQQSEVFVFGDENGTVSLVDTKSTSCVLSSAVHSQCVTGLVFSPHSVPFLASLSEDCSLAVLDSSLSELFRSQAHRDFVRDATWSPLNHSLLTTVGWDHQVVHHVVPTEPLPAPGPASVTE

| Structure (SMILES) | IC50 [3, 10] [nM] | IC50 [4, 11] [nM] | IC50 [5, 12] [nM] | other results |
| --- | --- | --- | --- | --- |
| CCc1cc(NC(=O)C(=O)N2C[C@@H](C)CC[C@@H]2c2cccc(CCCN(C)C)c2)cnc1N [Compound 1393, N-(6-amino-5-ethylpyridin-3-yl)-2-((2R,5S)-2-(3-(3-(dimethylamino)propyl)phenyl)-5-methylpiperidin-1-yl)-2-oxoacetamide] | – | – | – | IC50 [1]: 50 to 500 nM; IC50 [2]: < 50 nM; IC50 [3, 6]: 100 to 1000 nM; IC50 [4, 7]: < 100 nM; MTAP intact/deleted ratio [4, 8]: A (an IC50 ratio greater than or equal to 10 fold); IC50 [5, 9]: < 1000 nM |
| CCc1cc(NC(=O)C(=O)N2C[C@@H](C)CC[C@@H]2c2cccc(OCCCN(C)C)c2)cnc1N [Compound 1384, N-(6-amino-5-ethylpyridin-3-yl)-2-((2R,5S)-2-(3-(3-(dimethylamino)propoxy)phenyl)-5-methylpiperidin-1-yl)-2-oxoacetamide] | – | – | – | IC50 [1]: 50 to 500 nM; IC50 [2]: < 50 nM; IC50 [3, 6]: < 100 nM; IC50 [4, 7]: < 100 nM; MTAP intact/deleted ratio [4, 8]: A (an IC50 ratio greater than or equal to 10 fold); IC50 [5, 9]: < 1000 nM |
| CCc1cc(NC(=O)C(=O)N2C[C@@H](C)CC[C@@H]2c2cccc(Oc3cccnc3)c2)cnc1N [Compound 1180] | – | – | – | IC50 [1]: 50 to 500 nM; IC50 [2]: < 50 nM; IC50 [3, 6]: 100 to 1000 nM; IC50 ([4]; HAP1, SDMA in-cell western, HAP1 MTAP-deleted, read-out: HAP1 MTAP deleted IC50): < 100 nM; MTAP intact/deleted ratio ([4]; IC50 ratio HAP1 MTAP-intact vs HAP1 MTAP-deleted): A (an IC50 ratio greater than or equal to 10 fold); IC50 ([5]; HAP1, viability assay, MTAP-deleted cell line, read-out: HAP1 MTAP deleted viability): < 1000 nM |
| CCc1cc(NC(=O)C(=O)N2C[C@@H](C)CC[C@@H]2c2cccc(Oc3cc(C)nc(C)c3)c2)cnc1N [Compound 1297, N-(6-amino-5-ethylpyridin-3-yl)-2-((2R,5S)-2-(3-((2,6-dimethylpyridin-4-yl)oxy)phenyl)-5-methylpiperidin-1-yl)-2-oxoacetamide] | – | – | – | IC50 [1]: 50 to 500 nM; IC50 [2]: < 50 nM; IC50 [3, 6]: 100 to 1000 nM; IC50 [4, 7]: < 100 nM; IC50 [5, 9]: < 1000 nM |
| CCc1cc(NC(=O)C(=O)N2C[C@@H](C)CC[C@@H]2c2cccc(C(F)(F)CCN(C)C)c2)cnc1N [Compound 1381, N-(6-amino-5-ethylpyridin-3-yl)-2-((2R,5S)-2-(3-(3-(dimethylamino)-1,1-difluoropropyl)phenyl)-5-methylpiperidin-1-yl)-2-oxoacetamide] | – | – | – | IC50 [1]: < 50 nM; IC50 [2]: < 50 nM; IC50 [3, 6]: 100 to 1000 nM; IC50 [4, 7]: < 100 nM; MTAP intact/deleted ratio [4, 8]: A (an IC50 ratio greater than or equal to 10 fold); IC50 [5, 9]: < 1000 nM |
| Cc1cc(NC(=O)C(=O)N2CC(C)CCC2c2ccccc2)cnc1N (mixture of isomers) [Compound 27, N-(6-Amino-5-methyl-3-pyridyl)-2-(5-methyl-2-phenyl-1-piperidyl)-2-oxo-acetamide] | > 1000 | < 100 | 1000 to 10000 | – |
| Cc1cncc(NC(=O)C(=O)N2[C@@H](c3ccccc3)CC[C@@H](C)[C@H]2C)c1 (single isomer, unassigned) [Compound 35] | > 1000 | > 1000 | > 10000 | – |
| Cc1cc(NC(=O)C(=O)N2C[C@@H](C)CC[C@@H]2c2ccc3c(c2)CC(=O)N3)cnc1N (single isomer, unassigned) [Compound 678] | < 100 | < 100 | < 1000 | – |
| Cc1cncc(NC(=O)C(=O)N2[C@H](c3ccccc3)CC[C@@H](C)[C@@H]2C)c1 (single isomer, unassigned) [Compound 39] | > 1000 | > 1000 | > 10000 | – |
| Cc1cc(NC(=O)C(=O)N2C[C@@H](C)CC[C@@H]2c2ccccc2)cnc1N (single isomer, unassigned) [Compound 33] | 100 to 1000 | < 100 | 1000 to 10000 | – |
| C[C@H]1CC[C@H](c2ccc(C(F)F)cc2)N(C(=O)C(=O)Nc2cncc(C(N)=O)c2)C1 (single isomer, unassigned) [Compound 359] | > 1000 | < 100 | 1000 to 10000 | – |
| Cc1cc(NC(=O)C(=O)N2C[C@@H](C)CC[C@@H]2c2ccc(O)cc2)cnc1N (single isomer, unassigned) [Compound 396] | > 1000 | > 1000 | > 10000 | – |
| C[C@@H]1CC[C@@H](c2ccc3c(c2)CCC(=O)N3)N(C(=O)C(=O)Nc2cncc(C(N)=O)c2)C1 (single isomer, unassigned) [Compound 480] | > 1000 | > 1000 | > 10000 | – |
| Cc1cc(NC(=O)C(=O)N2C[C@H](C)CC[C@H]2c2ccc3cnccc3c2)cnc1N (racemic) [Compound 758, N-(6-Amino-5-methyl-3-pyridyl)-2-[2-(6-isoquinolyl)-5-methyl-1-piperidyl]-2-oxo-acetamide] | 100 to 1000 | < 100 | < 1000 | – |
| Cc1cc(NC(=O)C(=O)N2C[C@@H](C)CC[C@@H]2c2ccc3[nH]cnc3c2)cnc1N (single isomer, unassigned) [Compound 408] | 100 to 1000 | < 100 | < 1000 | – |
| Cc1cc(NC(=O)C(=O)N2C[C@@H](C)CC[C@@H]2c2ccc3cnccc3c2)cnc1N (single isomer, unassigned) [Compound 1002] | > 1000 | 100 to 1000 | > 10000 | – |
| C[C@H]1CC[C@H](c2ccc3c(c2)CCC(=O)N3)N(C(=O)C(=O)Nc2cncc(C(N)=O)c2)C1 (single isomer, unassigned) [Compound 479] | > 1000 | < 100 | 1000 to 10000 | – |
| Cc1cc([C@H]2CC[C@H](C)CN2C(=O)C(=O)Nc2cncc(C(N)=O)c2)cc2cn[nH]c12 (relative stereo) [Compound 638, 5-[[2-[(2R,5S)-5-methyl-2-(7-methyl-1H-indazol-5-yl)-1-piperidyl]-2-oxo-acetyl]amino]pyridine-3-carboxamide] | – | – | – | IC50 [3, 6]: > 1000 nM; IC50 [4, 7]: < 100 nM; MTAP intact/deleted ratio [4, 8]: A (an IC50 ratio greater than or equal to 10 fold); IC50 ([5]; HAP1, viability IC50, MTAP-deleted cell line, read-out: HAP1 MTAP deleted viability): 1000 to 10000 nM |

Second part, led by results:

| IC50 [3, 10] [nM] | IC50 [4, 11] [nM] | Structure (SMILES) | IC50 [5, 12] [nM] | other results |
| --- | --- | --- | --- | --- |
| 100 to 1000 | < 100 | [2H][C@]1(c2ccc(F)cc2)CC[C@H](C)CN1C(=O)C(=O)Nc1cnc(N)c(C)c1 (racemic) [Compound 1009, N-(6-amino-5-methylpyridin-3-yl)-2-(2-(4-fluorophenyl)-5-methylpiperidin-1-yl-2-d)-2-oxoacetamide hydrochloride] | 1000 to 10000 | – |
| 100 to 1000 | < 100 | C[C@H]1CC[C@H](c2ccc3scnc3c2)N(C(=O)C(=O)Nc2cnc(N)c(C3CC3)c2)C1 [Compound 1319, N-(6-amino-5-cyclopropyl-3-pyridyl)-2-[(2R,5S)-2-(1,3-benzothiazol-5-yl)-5-methyl-1-piperidyl]-2-oxo-acetamide] | < 1000 | – |
| < 100 | < 100 | Cc1cc(NC(=O)C(=O)N2C[C@@H](C)CC[C@@H]2c2ccc3sc(C4CCN(C)CC4)nc3c2)cnc1N (single isomer, unassigned) [Compound 1314] | < 1000 | – |
| 100 to 1000 | < 100 | CCc1cc(NC(=O)C(=O)N2C[C@@H](C)CC[C@@H]2c2ccc3scnc3c2)cnc1N (stereo in doubt) [Compound 701, N-(6-amino-5-ethyl-3-pyridyl)-2-[(2R,5S)-2-(1,3-benzothiazol-5-yl)-5-methyl-1-piperidyl]-2-oxo-acetamide] | < 1000 | – |
| > 1000 | < 100 | C[C@H]1CC[C@H](c2ccccc2)N(C(=O)C(=O)Nc2cncc(C(N)=O)c2)C1 (single isomer, unassigned) [Compound 88] | 1000 to 10000 | – |
| > 1000 | > 1000 | Cc1cc(NC(=O)C(=O)N2C[C@H](C)CC[C@H]2c2ccc(F)cc2)cnc1N (single isomer, unassigned) [Compound 233] | > 10000 | – |
| < 100 | < 100 | Cc1cc(NC(=O)C(=O)N2C[C@@H](C)CC[C@@H]2c2ccc3sc(N4CCN(C)CC4)nc3c2)cnc1N [Compound 1158, N-(6-amino-5-methylpyridin-3-yl)-2-((2R,5S)-5-methyl-2-(2-(4-methylpiperazin-1-yl)benzo[d]thiazol-5-yl)piperidin-1-yl)-2-oxoacetamide] | < 1000 | – |
| > 1000 | 100 to 1000 | CCc1cc(NC(=O)C(=O)N2C[C@H](C)CC[C@H]2c2ccc3scnc3c2)cnc1N (stereo in doubt) [Compound 694, N-(6-amino-5-ethyl-3-pyridyl)-2-[(2S,5R)-2-(1,3-benzothiazol-5-yl)-5-methyl-1-piperidyl]-2-oxo-acetamide] | 1000 to 10000 | – |
| < 100 | < 100 | Cc1cc(NC(=O)C(=O)N2C[C@H](C)CC[C@H]2c2ccc3sc(CN(C)C)nc3c2)cnc1N (single isomer, unassigned) [Compound 1122] | < 1000 | – |
